Data on five compounds can be found in patent publication US3974140A, “Ureidoacetamido-penicillins” (Bayer Aktiengesellschaft, priority 1970, dated 1976).

The test system of series [1] is Staph. aureus 133. As to the kind of experiment: MIC, liquid medium test tube series dilution test. The series is classed as cell-based, Staphylococcus aureus. The settings on record: Staph. aureus 133, 24 hours, 37°C. The procedure, abridged:
(§1)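 In this in vitro test, growth inhibition is judged by absence of turbidity across a dilution series in complete nutrient broth. Readings are made after 24 hours at 37°C, with values given in units/ml.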

The test system of series [2] is Staph. aureus 1777 E. Briefly: MIC, liquid medium test tube series dilution test. The series is classed as cell-based, Staphylococcus aureus. The settings on record: 24 hours, 37°C. The procedure, abridged: as §1
The test system of series [3] is Proteus vulg. 3400. As to the kind of experiment: MIC, liquid medium test tube series dilution test. The format is cell-based, Proteus vulgaris. The settings on record: Proteus vulg. 3400, 24 hours, 37°C. The procedure, abridged: as §1
The test system of series [4] is Proteus vulg. 1017. As to the kind of experiment: MIC, liquid medium test tube series dilution test. The format is cell-based, Proteus vulgaris. The settings on record: Proteus vulg. 1017, 24 hours, 37°C. The procedure, abridged:
as §1

Series [5] concerns Klebsiella K 10. As to the kind of experiment: MIC, liquid medium test tube series dilution test. The format is cell-based. The settings on record: Klebsiella K 10, 24 hours, 37°C. In outline:
as §1

Series [6] relates to E. coli 14. As to the kind of experiment: MIC, liquid medium test tube series dilution test. The series is classed as cell-based. The settings on record: E. coli 14, 24 hours, 37°C. In outline: as §1
The test system of series [7] is E. coli C 165. Briefly: MIC, liquid medium test tube series dilution test. The settings on record: E. coli C 165, 24 hours, 37°C. The format is cell-based. The procedure, abridged:
as §1

Series [8] deals with Klebsiella 63. As to the kind of experiment: MIC, liquid medium test tube series dilution test. The series is classed as cell-based. The settings on record: Klebsiella 63, 24 hours, 37°C. The procedure, abridged: as §1
The subject of series [9] is E. coli 183/58. As to the kind of experiment: MIC, liquid medium test tube series dilution test. The series is classed as cell-based. The settings on record: E. coli 183/58, 24 hours, 37°C. In outline:
as §1

The subject of series [10] is E. coli A 261. Briefly: MIC, liquid medium test tube series dilution test. The series is classed as cell-based. The settings on record: E. coli A 261, 24 hours, 37°C. The procedure, abridged: as §1
Series [11] deals with Psdm. aerug. Walter. As to the kind of experiment: MIC, liquid medium test tube series dilution test. The series is classed as cell-based, Pseudomonas aerug. The settings on record: 24 hours, 37°C. The procedure, abridged: as §1
In series [12] the test system is Psdm. aerug. Bonn. Briefly: MIC, liquid medium test tube series dilution test. The format is cell-based, Pseudomonas aerug. The settings on record: 24 hours, 37°C. The procedure, abridged:
as §1

Series [13] deals with Staph. aureus 133. As to the kind of experiment: Surviving mice after intraperitoneal infection and subcutaneous therapy. The format is in vivo, white mice, CF1 strain. The settings on record: 2 × 200 units/mouse s.c. The protocol: (§2) The experiments on animals (see Table 3) were carried out with white mice of the CF1 strain. The infection took place intraperitoneally with the particular bacterium indicated.

Series [14] relates to Klebsiella. The settings on record: background statement; cited from earlier work.
The nature of series [15]: Acute toxicity (LD50), intravenous injection into the vein of the tail. The format is in vivo. The settings on record: mouse, in vivo, iv. From the text:
Acute toxicity (LD50) in white mice after
intravenous injection into the vein of the […]

In series [16] the test system is Pseudomon. aer. F 41. As to the kind of experiment: Surviving mice after intraperitoneal infection and subcutaneous therapy. The format is in vivo, white mice, CF1 strain. The settings on record: 30 min before and 2, 4, 6 hours after infection, 1st day. The protocol:
as §2

Series [17] in a line: Serum level after subcutaneous administration, measured from microbiological activity against Proteus vulgaris 1017. The series is classed as in vivo, white mice. The settings on record: 150.000 units s.c. From the text: Serum level after subcutaneous ("s.c.") administration to white mice, in units/ml of serum, measured from the microbiological activity against Proteus vulgaris 1017 (ampicillin-resistant).

The subject of series [18] is Streptoc. faec. ATCC 9790. As to the kind of experiment: MIC, liquid medium test tube series dilution test. The series is classed as cell-based. The settings on record: Strep. faec. (Enterococcus) ATCC 9790, 24 hours, 37°C. In outline:
as §1

Series [19] is described as follows: Acid stability. The format is physicochemical. The settings on record: pH 1 where stated.
Series [20] relates to Proteus vulgaris 1017. As to the kind of experiment: Reduction in number of bacteria/ml of blood after subcutaneous administration. The series is classed as in vivo, mouse. From the text: Reduction in number of bacteria/ml of blood after subcutaneous
administration of Penicillin No. 83.
Infection took place intraperitoneally with Proteus vulgaris 1017, 8
× 10^5 /mouse; ampicillin-resistant.

For the compound `CC1(C)S[C@@H]2[C@H](NC(=O)[C@H](N)c3ccccc3)C(=O)N2[C@H]1C(=O)O` [Ampicillin, D(-)-α-Aminobenzylpenicillin, reference compound], the MIC in [1] is given as less than 1.0 units/ml; in series [2], 200 units/ml; in series [3], greater than 400 units/ml; in [4] it was 400 units/ml; in series [5] it was 100-200 units/ml; in series [6], ~ 0.8 units/ml. Also, the MIC is on record as 6.25 units/ml in series [7]; 100-200 units/ml in [8]; 200 units/ml in series [9]; greater than 400 units/ml in series [10]; 200 units/ml in [11]; 200 units/ml in series [12]. Moreover, the “Number of surviving mice” value in series [13] (1 day), in series [13] (2 days), in series [13] (3 days) and in [13] (5 days) was 100% in each case. Moreover, the “Effectiveness against Klebsiella infections” value in series [14] is “not capable of effectively combating Klebsiella infections”.
For `CC1(C)S[C@@H]2[C@H](NC(=O)C(C(=O)O)c3ccccc3)C(=O)N2[C@H]1C(=O)O` (stereo partly drawn) [Carbenicillin], the LD50 in [15] was 2700 mg/kg. Moreover, the “Number of surviving mice” value in [16] (Dose E = 50,000 units/kg) is 0%; in [16] (Dose F = 75,000 units/kg) it was 20%; in series [16] (Dose G = 150,000 units/kg) it was 70%; in [16] (Dose H = 200,000 units/kg), 70%. In addition, the “Effectiveness against Klebsiella infections” value in series [14] is “only effective in man in the case of infections by Klebsiella bacteria if it is administered in continuing high doses”.
For `CN(C(=O)N[C@@H](C(=O)N[C@@H]1C(=O)N2[C@@H]1SC(C)(C)[C@@H]2C(=O)O)c1ccccc1)C(=O)c1ccccc1` [Example 59, Sodium D(-)-α-(3-benzoyl-3-methyl-ureido)-benzylpenicillin], the Serum level in series [17] (15 mins.) is given as 25 units/ml of serum; in series [17] (30 mins.), 20 units/ml of serum; in [17] (60 mins.), < 2 units/ml of serum. Also, the MIC is listed as less than 0.78 units/ml in series [1]; 100 units/ml in series [2]; 12.5 units/ml in series [3]; 6.25 units/ml in series [4]; 25 units/ml in [5]; 1.56 units/ml in [6]. For the same compound, the MIC in [7] was 6.25 units/ml; in series [8], 50 units/ml; in [9] it was 3.12 units/ml; in series [18], 100 units/ml; in [10], greater than 400 units/ml; in [11], 25 units/ml. The compound further showed an MIC in [12] of 12.5 units/ml. In addition, the “Number of surviving mice” value was found to be 90% in series [13] (1 day), 70% in series [13] (2 days), 70% in [13] (3 days) and 70% in series [13] (5 days). Further, the Stability to acid result in [19] is listed as “remain microbiologically active at pH 1 for over one hour”.
`CC(=O)N(C)C(=O)N[C@@H](C(=O)N[C@@H]1C(=O)N2[C@@H]1SC(C)(C)[C@@H]2C(=O)O)c1ccccc1` [Example 66A, Sodium D(-)-α-(3-acetyl-3-methyl-ureido)-benzylpenicillin]: the MIC in [1] is listed as less than 0.78 units/ml; in series [2] it was 50 units/ml; in series [3], 100 units/ml; in [4], 50 units/ml; in [5], 50 units/ml; in [6], 3.12 units/ml. In addition, the MIC in [7] was 12.5 units/ml; in [8] it was 50 units/ml; in series [9], 50 units/ml; in series [18], 25 units/ml; in series [10], greater than 400 units/ml; in series [11], 12.5 units/ml. Besides, the MIC in series [12] was determined as 6.25 units/ml. The LD50 in [15] is greater than 4000 mg/kg. The “Number of surviving mice” value in [13] (1 day) was found to be 100%; in series [13] (2 days) it was 90%; in series [13] (3 days) it was 70%; in series [13] (5 days) it was 70%. Also, the Stability to acid result in series [19] is given as “remain microbiologically active at pH 1 for over one hour”.
`COc1ccc(C(=O)N(C)C(=O)N[C@@H](C(=O)N[C@@H]2C(=O)N3[C@@H]2SC(C)(C)[C@@H]3C(=O)O)c2ccccc2)cc1[N+](=O)[O-]` [Example 83, Sodium D(-)-α-(3-[4-methoxy-3-nitrobenzoyl]-3-methyl-ureido)-benzylpenicillin]: the MIC in series [1] is less than 0.78 units/ml; in series [3] it was 6.25 units/ml; in series [4], 25 units/ml; in series [5], 25 units/ml; in series [6] it was 3.12 units/ml; in series [7], 6.25 units/ml. The MIC is on record as 50 units/ml in series [8]; 6.25 units/ml in series [9]; 100 units/ml in series [18]; 400 units/ml in series [10]; 100 units/ml in [11]; 50 units/ml in series [12]. In series [15], this compound showed an LD50 greater than 1200 mg/kg. For the same compound, the “Number of surviving mice” value was 80% in series [13] (1 day), 70% in series [13] (2 days), 70% in [13] (3 days) and 70% in series [13] (5 days). Moreover, the “Number of bacteria/ml of blood” value in series [20] (1 × 50,000 units/kg s.c. 30 min after infection, 30 mins.) is 9 × 10^3 bacteria/ml of blood; in [20] (1 × 50,000 units/kg s.c., 60 mins.), 7 × 10^3 bacteria/ml of blood; in series [20] (1 × 50,000 units/kg s.c., 90 mins.), 2 × 10^3 bacteria/ml of blood; in series [20] (1 × 50,000 units/kg s.c., 120 mins.) it was 1 × 10^3 bacteria/ml of blood; in series [20] (1 × 50,000 units/kg s.c., 150 mins.), 3 × 10^3 bacteria/ml of blood; in [20] (1 × 50,000 units/kg s.c., 180 mins.), 8 × 10^3 bacteria/ml of blood. The “Number of bacteria/ml of blood” value in series [20] (50,000 units/kg s.c. after 30 and 90 min, 60 mins.) is listed as 8 × 10^3 bacteria/ml of blood; in series [20] (50,000 units/kg s.c. after 30 and 90 min, 90 mins.), ~5 × 10^3 bacteria/ml of blood; in series [20] (50,000 units/kg s.c. after 30 and 90 min, 120 mins.) it was 2 × 10^2 bacteria/ml of blood; in [20] (50,000 units/kg s.c. after 30 and 90 min, 150 mins.) it was < 10^1 bacteria/ml of blood; in [20] (50,000 units/kg s.c. after 30 and 90 min, 180 mins.), < 10^1 bacteria/ml of blood; in series [20] (50,000 units/kg s.c. after 30 min and further 50,000 units/kg after 90 min, 30 mins.), 2 × 10^4 bacteria/ml of blood. Further, the Stability to acid entry in series [19] is “remain microbiologically active at pH 1 for over one hour”.

A word on the LD50: it is the dose at which mortality reaches 50%. A lower LD50 goes with a more toxic substance.
